Consider nine molecules from US10238655B2, “Dihydroindene and tetrahydronaphthalene compounds” (ARIZONA BOARD OF REGENTS ON BEHALF OF ARIZONA STATE …, priority 2017, dated 2019).

SMILES strings stand for the structures.

For one data set, the target named is hRXRβ (Homo sapiens, UniProt P28702). To be noted: read-out: EC50 for the hRXRβ isoform; cited from earlier work.
hRXRβ, sequence (P28702 whole entry, canonical isoform): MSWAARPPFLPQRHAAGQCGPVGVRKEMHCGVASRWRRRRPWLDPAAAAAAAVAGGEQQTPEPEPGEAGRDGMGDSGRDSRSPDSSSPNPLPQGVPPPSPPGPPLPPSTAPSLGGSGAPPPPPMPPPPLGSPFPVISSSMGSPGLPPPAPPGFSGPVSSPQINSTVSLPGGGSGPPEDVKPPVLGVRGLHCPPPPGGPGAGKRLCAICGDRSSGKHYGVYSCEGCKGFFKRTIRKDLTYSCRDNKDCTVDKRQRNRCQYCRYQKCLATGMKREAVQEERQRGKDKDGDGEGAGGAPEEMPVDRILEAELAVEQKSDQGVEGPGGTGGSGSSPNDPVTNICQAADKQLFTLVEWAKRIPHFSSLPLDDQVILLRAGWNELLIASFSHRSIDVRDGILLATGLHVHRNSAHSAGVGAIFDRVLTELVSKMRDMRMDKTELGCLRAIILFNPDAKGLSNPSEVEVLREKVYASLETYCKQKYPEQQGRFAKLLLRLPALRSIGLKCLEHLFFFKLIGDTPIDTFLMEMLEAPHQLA
The EC50 is the concentration giving half of the maximal effect. `Cc1cc2c(cc1-c1cc(/C=C/C(=O)O)ccc1O)C(C)(C)CCC2(C)C` [CD3254]: the EC50 was approximately 10 nM.

Test system in the next data set: not given
Conditions: not given
Usually melting point stands for the temperature, or range, at which the solid turns liquid. For the molecule `CCN(c1ccc(C(=O)O)c(F)c1)c1cc2c(cc1C)C(C)(C)CCC2(C)C` [Example 10, 4-(Ethyl(3,5,5,8,8-pentamethyl-5,6,7,8-tetrahydronaphthalen-2-yl)amino)-2-fluorobenzoic acid], the melting point lay within 241.4 to 243.8 °C. Consider `CCN(c1ccc(C(=O)O)cc1)c1cc2c(cc1C)C(C)(C)CCC2(C)C` [Example 3, 4-(Ethyl(3,5,5,8,8-pentamethyl-5,6,7,8-tetrahydronaphthalen-2-yl)amino)benzoic acid], for which the melting point lay within 252.4 to 256.8 °C. In the case of `CCN(c1ccc2c(c1)C(C)(C)CCC2(C)C)c1cnc(C(=O)O)cn1` [Example 7, 5-(Ethyl(5,5,8,8-tetramethyl-5,6,7,8-tetrahydronaphthalen-2-yl)amino)pyrazine-2-carboxylic acid], the melting point was in the range of 213.1 to 214.4 °C. On to `CCN(c1cnc(C(=O)O)cn1)c1cc2c(cc1C)C(C)(C)CCC2(C)C` [Example 8, 5-(Ethyl(3,5,5,8,8-pentamethyl-5,6,7,8-tetrahydronaphthalen-2-yl)amino)pyrazine-2-carboxylic acid], for which the melting point lay in the range of 203.6 to 205.1 °C.

In the case of `CCN(c1ncc(C(=O)O)cn1)c1cc2c(cc1C)C(C)(C)CCC2(C)C` [Example 6, 2-(Ethyl(3,5,5,8,8-pentamethyl-5,6,7,8-tetrahydronaphthalen-2-yl)amino)pyrimidine-5-carboxylic acid], the melting point was in the range of 231.9 to 233.1 °C.

Molecule `CCN(c1ccc(C(=O)O)cc1)c1ccc2c(c1)C(C)(C)CCC2(C)C` [Example 2, 4-(Ethyl(5,5,8,8-tetramethyl-5,6,7,8-tetrahydronaphthalen-2-yl)amino)benzoic acid] came in with a melting point of 247.8 to 250.6 °C.

For `CCN(c1ccc(C(=O)O)c(F)c1)c1ccc2c(c1)C(C)(C)CCC2(C)C` [Example 9, 4-(Ethyl(5,5,8,8-tetramethyl-5,6,7,8-tetrahydronaphthalen-2-yl)amino)-2-fluorobenzoic acid], the melting point fell in the range of 252.4 to 256.8 °C. In the case of `CCN(c1ccc2c(c1)C(C)(C)CCC2(C)C)c1ccc(C(=O)O)cn1` [Example 1, 6-(ethyl(5,5,8,8-tetramethyl-5,6,7,8-tetrahydronaphthalen-2-yl)amino)nicotinic acid], the melting point is 230 to 232 °C.
